Values quoted from earlier work in PMC8762078, “An ALS-associated variant of the autophagy receptor SQSTM1/p62 reprograms binding selectivity toward the autophagy-related hATG8 proteins” (The Journal of Biological Chemistry, 2021).
Entries after “also recorded” stand apart in the source; their conditions may differ.

Experiments:
[1] = molecular target: GABARAPL2 (Homo sapiens, UniProt P60520); details: ITC, compared with p62 WT-AIM
Excerpt: A comparison may be drawn between the GABARAPL2/p62 AIM model produced here and the GABARAPL2/UBA5 AIM structure, the only published structure of an AIM-bound GABARAPL2 ([38]). Both involve the formation of an intermolecular β-sheet between the AIM and the β2 strand of GABARAPL2; however, the UBA5 AIM is atypical, and this produces a noncanonical interaction. The UBA5 AIM sequence ([…]) leads to the formation of a binding pocket not observed in the GABARAPL2/p62 AIM model proposed here or in any other hATG8/AIM interaction, due to the spacing of the key residues. The RMSD between these two ...

[2] = tested on: motor neurone-like cells
Excerpt: Autophagy is a central pathway for the removal of aggregated or damaged proteins and organelles and is critical to cellular homeostasis. Deregulation of autophagy is recognized as a pathogenic mechanism contributing to a range of neurodegenerative disorders, including amyotrophic lateral sclerosis (ALS) and frontotemporal lobar degeneration (FTLD) ([1], [2], [3], [4]). These conditions form a disease spectrum (ALS-FTLD) defined primarily by ubiquitinated inclusions of TAR DNA-binding protein-43 kDa in neurones ([5]). The link between ALS-FTLD and autophagy is reinforced by the identification o ... || A clear effect of the ALS-associated L341V mutation of p62/hATG8 interactions has been shown through these in vitro studies, though the impact remains relatively modest with individual interaction affinity alterations of up to approximately twofold. However, the interactions are best contextualized around the tendency for p62 to assemble into nanoscale filaments, which have been amenable to cryo-EM structural characterization (Fig. 6A) ([17], [52]). The N-terminal PB1 domain of p62 assembles into a helical protein scaffold with the flexible C-terminal chain, which carries the AIM and UBA domai ...

Sequence of GABARAPL2 (P60520 whole entry): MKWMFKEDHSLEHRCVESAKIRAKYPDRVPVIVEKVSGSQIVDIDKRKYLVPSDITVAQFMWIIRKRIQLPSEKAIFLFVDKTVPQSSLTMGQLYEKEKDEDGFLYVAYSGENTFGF

Row | Substance | thermodynamic profile of GABARAPL2/UBA5 interaction [1] | p62 recruitment into autophagic vesicles [2]
1 | WGIELV [UBA5 AIM] | more enthalpically driven than the interaction with p62 reported here | –
2 | p62 L341V: ALS-associated L341V variant of the SQSTM1/p62 autophagy receptor | – | defect in p62 protein recruitment into autophagic vesicles; also recorded: reduction in p62 recruitment to acidic autophagic vesicles
